{"source": "patent US20080118437A1", "about": "“Diagnosis and treatment O prostate cancer” (Regents of the University of Michigan, priority 2006, published 2008)", "key": {"PC-3 cells [1]": {"system": "PC-3 cells", "experiment": "Transwell migration assay toward hrCCL2", "assay_type": "cell-based, human", "conditions": "hrCCL2 100 ng/mL, 24 hours", "procedure": "(§1) Increasing concentrations of CCL2 (1-100 ng/mL) or conditioned media was added to the lower chamber of a 24-well plate. Cells were harvested by EDTA release and resuspended in serum free media at 5×10^4 cells/ml. 2.5×10^4 cells were added to the upper chamber of the transwell insert and incubated for 24 hours at 37° C. and 5% CO^2 atmosphere. At the end of the incubation period, the cells were fixed with 4% formaldehyde in PBS for 5 minutes. Non-adherent cells were removed from inside the inserts with a cotton-tipped applicator. Cells which had migrated to the underside of the insert were stained with 0.5% crystal violet for 5 minutes and rinsed thoroughly with tap water. Inserts were allowed to dry and the cells were counted using an inverted microscope."}, "VCaP cells [2]": {"system": "VCaP cells", "experiment": "Fluorescence-based migration assay toward hrMCP-1", "assay_type": "cell-based, human", "conditions": "MCP-1 1-100 ng/mL", "procedure": "(§2) Flouresence-based Migration Assay—Cell migration was assessed using the Innocyte Cell Migration Assay (Calbiochem, Inc.) following the manufacturer's instructions. Briefly, increasing concentrations of MCP-1 (1-100 ng/mL) in the presence and absence of CCR2 inhibitors or neutralizing antibodies were added to the lower chamber of a 96 well plate. Cells were harvested by 0.5 μM EDTA release and resuspended at 2.5×10^5 cells/mL in serum free media. 2.5×10^4 cells were added to the upper chamber and allowed to migrate through the membrane with 8 μm pores for 24 hours at 37° C. and 5% CO2 atmosphere. Cells that migrated through the membrane were detached and labeled with Calcein AM and fluorescence was measured using fluorescent plate reader with excitation wavelength of 485 nm and emission wavelength of 520 nm. The experiments were repeated twice and each conditioned was performed in quadruplicate in each experiment."}, "PC-3 cells [3]": {"system": "PC-3 cells", "experiment": "Fluorescence-based migration assay toward hrMCP-1", "assay_type": "cell-based, human", "conditions": "MCP-1 1-100 ng/mL", "procedure": "as §2"}, "U937 premonocytic cells": {"system": "U937 premonocytic cells", "experiment": "Macrophage migration assay (modified Boyden chamber)", "assay_type": "cell-based, human", "conditions": "VCaP conditioned media; pre-incubation 30 μg/mL", "procedure": "as §1, with “Increasing concentrations of CCL2 (1-100 ng/mL) or conditioned media was added to the lower chamber of a 24-well plate.” left out, “by 0.5 μM” for “by”, “CO2” for “CO^2”, “with” for “with a”, “swabs.” for “applicator.”, “that” for “which”"}, "PC-3Luc cells [4]": {"system": "PC-3Luc cells", "experiment": "WST-1 proliferation assay with hrCCL2 and anti-CCL2 antibodies", "assay_type": "cell-based, human", "conditions": "72 hours, antibodies 30 μg/mL", "procedure": "Cells were seeded at a density of 1×10^5 cells/ml for PC-3Luc cells in a 96 well plate in RPMI+10% FBS (FCS is mentioned in previous section). Twenty-four hours after seeding, media was changed to either serum-free RPMI or RPMI+10% FBS. Cell growth was determined 72 hours later using the WST-1 assay (Pierce Biotech, Inc.) following the manufacturer's instructions."}, "VCaP cells [5]": {"system": "VCaP cells", "experiment": "Immunoblot analysis of CCL2 stimulated VCaP cells", "assay_type": "cell-based, human", "conditions": "CCL2 100 ng/mL for 24 hours", "procedure": "Cells were lysed in RIPA buffer (50 mM Tris-HCl, pH 7.4, 1% NP-40, 150 mM NaCl, 1 mM EDTA, 1 mM PMSF, 1 mM Na3VO4, 1 mM NaF, 1 μM okadaic acid and 1 μg/mL aprotinin, leupeptin and pepstatin). Proteins were separated under reducing conditions by SDS-PAGE and transferred onto nitrocellulose membranes. The membranes were blocked with 5% milk in TBST (0.1% Tween in TBS) for 1 hour at room temperature, then were incubated overnight at 4° C. with primary antibodies. Membranes were washed 3 times prior to incubation with HRP-conjugated secondary antibodies (Cell Signaling) for 1 hour at room temperature. Protein expression was visualized by ECL chemiluminescence (Promega, Madison, Wis.) and quantitated using Image J software (NCl, Bethesda, Md.)."}, "mouse CCL2/JE": {"target": "mouse CCL2/JE (Mus musculus, UniProt P10148)", "sequence (P10148 24-148)": "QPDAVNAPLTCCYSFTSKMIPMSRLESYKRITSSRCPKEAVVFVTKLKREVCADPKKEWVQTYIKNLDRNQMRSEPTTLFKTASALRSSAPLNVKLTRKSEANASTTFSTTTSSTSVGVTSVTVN", "experiment": "Cross-reactivity / neutralization", "assay_type": "binding"}, "PC-3Luc cells [6]": {"system": "PC-3Luc cells", "experiment": "Bioluminescent in vivo model of metastasis (Examples 1 and 2)", "set-up": "species or system male SCID mice", "conditions": "Day 35; 2 mg/Kg twice weekly i.p. from Day 14", "procedure": "Bioluminescent in vivo model of metastatsis—Bioluminescent imaging of PC-3^Luc was preformed as previously described through The University of Michigan Small Animal Imaging Resource facility (MSAIR) (Kalikin 2003). Briefly, PC-3Luc cells were introduced into male SCID mice (5-6 wks) by intracardiac injections. Mice were serially imaged weekly for 6 weeks using a CCD IVIS™ system using a 50 mm lens (Xenogen Corp, Alameda, Calif.) and the results were analyzed using […] software (Xenogen Corp.). Mice were separated into one of five groups; 1) PBS control, 2) anti-hIgG control human antibody, 3) anti-cVaM control mouse antibody, 4) anti-MCP1 (human), 5) anti-MCP1/JE (mouse). Treatment began at week 2 post-intracardiac injection and mice received 2 mg/Kg antibody twice weekly by intraperitoneal injection. Mice were injected with luciferin (40 mg/mL) intraperitoneally and ventral images were acquired 15 min post-injection under 1.75% isofluorane/air anesthesia. Total tumor burden of each animal was calculated using regions of interest (ROIs) that encompassed the entire animal. Animals were sacrificed after week 6 image and individual organs were harvested and immediately placed in formalin."}, "[7]": {"system": "HDMVEC (human dermal microvacular endothelial cells)", "experiment": "Endothelial tube formation assay in VCaP conditioned media", "assay_type": "cell-based", "conditions": "30 μg/mL in VCaP conditioned media; vs isotype control antibody", "procedure": "In vitro tube formation was performed as previously described (Zhou et al., Int J Cancer 110 (2004) 800-806). Growth factor reduced […] was diluted with cold serum-free medium to a concentration of 10 mg/ml. 50 μl of the solution was added to each well of a 96-well plate and allowed to form a gel at 37° C. for 30 min. HDMVEC (human dermal microvacular endothelial cells) cells (150,000 cells/ml) in VCaP conditioned media (VCaP CM) were added to each well and incubated overnight at 37° C. in 5% CO2. […] Under these conditions, EC will form delicate networks of tubes that are detectable within 2-3 h and are fully developed after 8-12 h. After overnight incubation the wells were washed, and the […] and its endothelial tubes were fixed with 3% paraformaldehyde. Tube formation was quantified by counting the number of sprouts that developed per objective field (100×) and assays were performed in triplicate from 3 independent experiments."}}}
{"substance": "CNTO888: human IgG1κ antibody that neutralizes human CCL2", "values": [{"measurement": "hrCCL2-induced migration, mean ±SD", "setting": "PC-3 cells [1]", "value": "217±29"}, {"measurement": "effect on MCP-1 induced dose dependent migration of VCaP cells", "setting": "VCaP cells [2]", "value": "attenuated"}, {"measurement": "effect on MCP-1 induced dose dependent migration of PC-3 cells", "setting": "PC-3 cells [3]", "value": "attenuated"}, {"measurement": "number of migrating U937 cells", "setting": "U937 premonocytic cells", "value": "225±111"}, {"measurement": "cell viability (WST-1) as a measure of proliferation, mean ±SD", "setting": "PC-3Luc cells [4]; CCL2 10 ng/mL", "value": "112.52±10.2"}, {"measurement": "cell viability (WST-1) as a measure of proliferation, mean ±SD", "setting": "PC-3Luc cells [4]; CCL2 100 ng/mL", "value": "132.93±17.08"}, {"measurement": "CCL2 induced Akt phosphorylation and p44/p42 MAPK phosphorylation", "setting": "VCaP cells [5]", "value": "attenuated"}, {"measurement": "cross-reaction with or neutralization of mouse CCL2/JE", "setting": "mouse CCL2/JE", "value": "do not cross-react with or neutralize"}, {"measurement": "reduction in overall tumor burden compared to control antibody", "setting": "PC-3Luc cells [6]", "value": 46.52, "unit": "%"}, {"measurement": "number of capillary-like tubes formed", "setting": "[7]", "value": "significantly reduced"}]}
